Here are results for one compound from patent publication US4666886A, “Novel peptide derivatives” (Ciba-Geigy Corporation, priority 1983, dated 1987).

The structures appear in SMILES notation. Square brackets hold non-standard residues; d marks the D form. Peptide text beside a SMILES is read from it. * marks the point of attachment. X2 = CCCCCCCCCCCC(=O)OC[C@H](C*)OC(=O)CCCCCCCCCCC; Palmitoyl = CCCCCCCCCCCCCCCC(=O)*

For the series, the system named is Alveolar rat macrophages. The series is described as follows: Activation of alveolar rat macrophages: specific cytotoxicity against 125I-marked tumour cells. The class given is cell-based. How it is done:
Alveolar rat macrophages are obtained by lung lavage, plated out and incubated in vitro from 24 hours either with liposomes that are charged with the active ingredient, or with the active ingredient in physiological salt solution (phosphate buffered saline, PBS), ^125 I-marked tumour cells are added and incubation is continued for a further 72 hours. Subsequently the dead tumour cells are washed away and the number of tumour cells still living is determined on the basis of their radioactivity. The macrophage activation is assessed on the basis of the cytotoxicity, that is to say according to the proportion of tumour cells dead at the end of the test. The specific cytotoxicity [%] is calculated as follows: [formula] Further details of the above-mentioned test method are described in I. J. Fidler et al., J. Biol. Response Modifiers 1, 43-55 (1982).

For `CCCCCCCCCCCCCCCC(=O)N[C@@H](CSC[C@@H](COC(=O)CCCCCCCCCCC)OC(=O)CCCCCCCCCCC)C(=O)N[C@H](C)C(=O)N[C@@H](C)C(=O)N[C@H](CCC(=O)O)C(N)=O` [R, palmitoyl-Cys(2[R], 3-dilauroyloxy-propyl)-D-Ala-Ala-D-Glu-NH2] (Palmitoyl-C(X2)[dA]A[dE]-NH2), the “Specific cytotoxicity [%]” value runs as follows: (active ingredient in 100 μg of liposomes per 0.2 ml, 0.02 μg/culture) 20%; (active ingredient in 100 μg of liposomes per 0.2 ml, 0.2 μg/culture) 18%; (active ingredient in 100 μg of liposomes per 0.2 ml, 2 μg/culture) 86%; (active ingredient in 0.2 ml of PBS, 0.02 μg/culture) 0%; (active ingredient in 0.2 ml of PBS, 0.2 μg/culture) 84%; (active ingredient in 0.2 ml of PBS, 2 μg/culture) 51%.
